Target: T1, CIC-1 channels (Rattus norvegicus, UniProt P35524)
T1 construct: Gm was measured in individual fibres of whole rat soleus muscles; from tissue; host or cells: soleus muscle of adult (12-14 week old) Wistar rats
T1 sequence (P35524 1-994): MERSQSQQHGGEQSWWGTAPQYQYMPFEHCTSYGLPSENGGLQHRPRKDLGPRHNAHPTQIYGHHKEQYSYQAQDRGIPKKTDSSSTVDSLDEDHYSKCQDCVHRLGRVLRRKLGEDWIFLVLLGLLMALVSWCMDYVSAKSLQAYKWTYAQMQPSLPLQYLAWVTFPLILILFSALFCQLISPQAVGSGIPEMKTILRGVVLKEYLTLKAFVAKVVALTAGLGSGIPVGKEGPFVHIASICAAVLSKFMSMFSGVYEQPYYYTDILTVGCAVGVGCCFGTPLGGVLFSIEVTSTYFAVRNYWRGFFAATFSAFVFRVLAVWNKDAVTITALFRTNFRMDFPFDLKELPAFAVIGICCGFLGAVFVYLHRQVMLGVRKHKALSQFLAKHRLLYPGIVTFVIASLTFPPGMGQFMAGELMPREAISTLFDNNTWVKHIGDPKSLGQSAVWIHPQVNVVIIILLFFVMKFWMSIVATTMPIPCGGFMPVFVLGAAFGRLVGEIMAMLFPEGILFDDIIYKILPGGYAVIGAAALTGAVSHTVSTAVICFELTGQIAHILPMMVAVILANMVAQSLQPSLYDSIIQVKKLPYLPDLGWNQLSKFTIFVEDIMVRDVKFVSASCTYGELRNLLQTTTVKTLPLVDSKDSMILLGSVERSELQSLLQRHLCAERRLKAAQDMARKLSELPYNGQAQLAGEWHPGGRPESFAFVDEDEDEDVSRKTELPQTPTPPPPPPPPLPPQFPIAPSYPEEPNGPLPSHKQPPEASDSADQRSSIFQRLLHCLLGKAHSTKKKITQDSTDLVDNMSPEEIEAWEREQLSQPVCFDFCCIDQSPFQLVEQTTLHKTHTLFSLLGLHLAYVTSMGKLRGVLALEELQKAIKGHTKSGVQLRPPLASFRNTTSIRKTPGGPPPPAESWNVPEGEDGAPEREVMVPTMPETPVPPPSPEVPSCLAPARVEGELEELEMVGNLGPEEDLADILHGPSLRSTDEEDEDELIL
Test: Electrophysiological measurement of compound inhibition of CIC-1 in rat muscle (Gm, EC50)
Format: cell-based
Conditions: rat soleus muscle fibres, three micro-electrode Gm measurement; read-out: EC50 (inhibition of ClC-1 ion channel, Gm)

Compound | EC50 [µM]
[2H]CC([2H])[C@H](Oc1ccc(Br)cc1)C(=O)O (stereo partly drawn) [Compound A-76, (2S)-2-(4-bromophenoxy)(3,4-^2H2)butanoic acid] | 3.8 ± 2.1
[2H][C@@](CF)(Oc1ccc(Br)cc1)C(=O)O [Compound A-82, (2R)-2-(4-bromophenoxy)-3-fluoro(2-^2H)propanoic acid] | 5.2 ± 1.3

Same assay, conditions: rat soleus muscle fibres; sigmoidal fit of average Gm; read-out: EC50 (inhibition of CIC-1, reduction of Gm)

Compound | EC50 [µM]
CC(C)[C@@H](Oc1ccc(Br)cc1F)C(=O)O [Compound A-4, (2R)-2-(4-bromo-2-fluoraphenoxy)-3-methylbutanoic acid] | > 80

Tested on: isolated rat soleus muscles
Test: Recovery of nerve-stimulated force in isolated rat soleus muscles exposed to sub-maximal tubocurarine
Format: cell-based
Conditions: not given
Description: Experiments were performed using rat soleus muscles from either young (4-wk-old) or adult Wistar rats (12-14-week-old). Animal handling, killing and isolation of muscle is described elsewhere All experiments were performed using normal Krebs-Ringer bicarbonate solution (NKR). In solutions with elevated Mg^2+, MgCl2 was added to NKR-solution causing minor increases in osmolarity and ionic strength. In solutions with elevated K^+, 4 mM NaCl was replaced by 4 mM KCl in the NKR.
In all contraction experiments, isometric force production was determined and force produced during contractions was quantified by measuring the integral of the force response (AUC). Stimulation and force recordings have been described elsewhere. […] In these latter experiments, extracellular recordings of action potentials (M-waves) could be measured without temporal overlap with stimulation artefacts.
The aim was to find compounds that by inhibition of CIC-1 channels can recover nerve-stimulated force under conditions of fatigue including conditions where fatigue is caused by compromised neuromuscular transmission. Neuromuscular transmission dysfunction can develop because of both pre- and/or post-synaptic complications in connection with a disorder or as part of neuromuscular blockade during/after surgery. In the initial series of drug testing, experiments were performed with isolated muscles in the presence of sub-maximal ACh receptor antagonist tubocurarine. Since the inclusion of tubocurarine caused a partial loss of neuromuscular transmission this experiment mimics the conditions in myasthenia gravis and neuromuscular blockade. To mimic conditions with pre-synaptic complication (Lambert Eaton syndrome, motor neuron disorder, polyneuropathy) the intact nerve-muscle preparations were incubated at elevated extracellular Mg^2+, which is known to suppress release of ACh from nerve terminals of motor neurons.
The experiments also illustrate that field stimulation of the entire nerve-muscle preparation selectively activates the motor nerve when short-duration pulses (0.02 vs 0.2 ms) were used. In FIG. 1A the preparation was stimulated either via field stimulation or via nerve-stimulation using a suction electrode. With the suction electrode only the nerve could be stimulated. When exposed to a submaximal concentration of the ACh receptor antagonist tubocurarine (0.2 μM) a clear drop in peak force and a further decline (or fade) in force during the stimulation developed. This drop in force clearly reflected compromised neuromuscular transmission, as the decline in peak force and fading were not seen with direct stimulation of the muscle. […] Thus, loss of M-wave and force with tubocurarine reflected partial blockade of neuromuscular function. Such fading of force and M-waves during stimulation represent clinical hallmarks of both myasthenia gravis and neuromuscular blockade in connection with surgery. In FIG. 1B, observations with normal (0.2 ms) and short-duration (0.02 ms) pulses have been compared. It can be seen that only with short-duration pulses did tubocurarine cause a decline in peak force and fading (FIG. 1B). This confirms that short-duration pulses in field stimulation could be used as specific nerve-stimulation. […] Elevated extracellular Mg^2+ could thus be used to partially block neuromuscular transmission and thus be used as a model of conditions with compromised pre-synaptic function (Lambert Eaton syndrome, amyotrophic lateral sclerosis, spinal muscular atrophy). […]

Compound | 50 μM % change after addition (AUC of nerve-stimulated force) [%] | 150 μM % change after addition (AUC of nerve-stimulated force) [%]
CC(Oc1ccc(Cl)cc1)C(=O)Oc1ccc(Cl)cc1 (centres unmarked) [Compound C11, 4-chlorophenyl 2-(4-chlorophenoxy)propanoate] | 46 | 54

Target: T2, human CIC-1 channels (Homo sapiens, UniProt P35523)
T2 construct: host or cells: CHO (Chinese hamster ovary) cells, cryopreserved, used directly after thawing
T2 sequence (P35523 whole entry): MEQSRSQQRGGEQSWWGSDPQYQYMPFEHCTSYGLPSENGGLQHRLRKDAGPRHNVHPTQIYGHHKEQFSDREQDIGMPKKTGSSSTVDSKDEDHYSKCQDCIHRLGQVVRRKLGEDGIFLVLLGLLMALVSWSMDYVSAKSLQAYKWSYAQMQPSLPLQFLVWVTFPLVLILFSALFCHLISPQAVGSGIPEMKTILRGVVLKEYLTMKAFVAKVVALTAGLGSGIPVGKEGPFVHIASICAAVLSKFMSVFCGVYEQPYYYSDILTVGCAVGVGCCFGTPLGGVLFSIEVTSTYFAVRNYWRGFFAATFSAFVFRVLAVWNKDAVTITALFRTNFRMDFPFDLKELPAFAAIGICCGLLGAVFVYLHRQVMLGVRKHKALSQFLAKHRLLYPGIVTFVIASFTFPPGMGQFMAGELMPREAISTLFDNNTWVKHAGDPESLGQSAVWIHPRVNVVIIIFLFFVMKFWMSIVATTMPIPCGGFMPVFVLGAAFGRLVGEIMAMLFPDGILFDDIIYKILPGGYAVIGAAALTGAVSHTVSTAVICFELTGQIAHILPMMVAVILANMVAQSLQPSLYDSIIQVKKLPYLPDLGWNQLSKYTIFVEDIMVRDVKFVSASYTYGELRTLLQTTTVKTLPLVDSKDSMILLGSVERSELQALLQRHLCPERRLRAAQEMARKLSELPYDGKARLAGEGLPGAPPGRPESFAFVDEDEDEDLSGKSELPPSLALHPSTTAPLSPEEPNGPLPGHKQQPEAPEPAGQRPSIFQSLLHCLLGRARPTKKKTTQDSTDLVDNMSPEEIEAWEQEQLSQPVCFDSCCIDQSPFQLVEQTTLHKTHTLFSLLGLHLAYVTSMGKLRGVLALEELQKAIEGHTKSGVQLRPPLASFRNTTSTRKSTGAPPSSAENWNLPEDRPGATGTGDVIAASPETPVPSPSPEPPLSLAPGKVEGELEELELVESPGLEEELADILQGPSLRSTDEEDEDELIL
Test: Automated patch-clamp on human CIC-1 expressed in CHO cells (shift in half activation voltage V1/2)
Format: cell-based
Conditions: compound in intracellular solution vs vehicle control patches; CHO cells expressing human ClC-1
Description: FIG. 13A-13B: FIG. 13A illustrates the voltage protocol used to evoke currents in whole cell patches of CHO cells expressing human CIC-1 channels.
The investigatory goal of these experiments was to evaluate how compounds affect the open probability and current amplitude of human CIC-1 channels expressed in CHO cells. Experiments were performed using an automated patch clamp system that allowed high throughput testing of whole cell patches together with both intracellular and extracellular addition of compound.
Automated whole cell patch clamp experiments were performed with the Qpatch 16 system (Sophion Bioscience, Ballerup, Denmark) at room temperature. Data acquisition and analysis were performed in the Qassay software (ver. 5.6, Odense).
To obtain tail currents, the membrane potential was stepped to −100 mV after each test voltage for 300 ms and then relaxed to −30 mV for 2 sec between sweeps (FIG. 3). I/V relationships for whole cell instant and steady state current amplitudes were obtained by plotting average current densities at the beginning and at the end of the 300 ms step against the membrane potential (FIG. 4).
In order to determine the relative overall open probability (Po), the instantaneous tail currents were normalized to the maximal tail current obtained following the most positive voltage step and plotted against the test voltage. Plots of normalized tail currents from each whole cell patch were then fitted to a Boltzmann function allowing determination of half activation voltages (V1/2, FIG. 5).
Osmolality adjusted to […] using sucrose.
Intracellular solutions contained: 80 mM […], 60 mM CsCl, 5/1 mM KOH/EGTA, 10 mM HEPES, 10 mM NaCl, pH adjusted to 7.2 with NaOH (2 M). Osmolality adjusted to ˜320 mOsm using sucrose.
Cells used in patch clamp experiments were Chinese hamster ovary cells (CHO) constitutively expressing human CIC-1 channels. The amino acid sequence encoded by the cDNA used to create this cell line was identical to the translated sequence for GenBank accession number NM_000083.2. Cells were produced by Charles River (Catalogue CT6175, Cleveland Ohio, USA) in a cryopreserved format. Experiments were performed on the cells directly after thawing (3×10^6 cells used in each experiment).
To evaluate the compound effect on CIC-1, when applied directly to the intracellular side of the cell membrane, the half activation voltage, V1/2, was determined from whole cell patches with compound added to the intracellular solution and then compared to V1/2 determined from control cell patches with only vehicle added to the intracellular solution. Additionally, the effect of extracellular added compound was evaluated by determine V1/2 and steady state current amplitudes before and after exchanging the extracellular solution to contain compound.
The difference in half activation voltage of CIC-1 channels, […]V1/2, was determined as the difference between the cell patches treated intracellularly with compound and control cells patches and is reported in Table 4 below. A positive shift in […]V1/2 is reflecting CIC-1 channel inhibition by the tested compound. P-values of <0.05 is considered significant.

Compound | ΔV½ (difference in half activation voltage of ClC-1) [mV]
O=C(O)[C@H](CF)Oc1ccc(Br)cc1 [Compound A-26, (2R)-2-(4-bromophenoxy)-3-fluoropropanoic acid] | 19.7
O=C(O)[C@@H](Oc1ccc(Br)cc1F)C1CC1 [Compound A-89, (2S)-2-(4-bromo-2-fluorophenoxy)-2-cyclopropylacetic acid] | 10.3
[2H]CC([2H])[C@H](Oc1ccc(Br)cc1)C(=O)O (stereo partly drawn) [Compound A-76, (2S)-2-(4-bromophenoxy)(3,4-^2H2)butanoic acid] | 26.2
COC[C@H](Oc1ccc(Br)cc1Br)C(=O)O [Compound A-74, (2S)-2-(2,4-dibromophenoxy)-3-methoxypropanoic acid] | 10.4
C[C@H](Oc1ccc(Cl)cc1F)C(=O)O [Compound A-38, (2S)-2-(4-chloro-2-fluorophenoxy)propanoic acid] | 17.4
O=C(O)[C@H](CCF)Oc1ccc(Br)cc1 [Compound A-87, (2S)-2-(4-bromophenoxy)-4-fluorobutanoic acid] | 16.4
CC(C)[C@H](Oc1ccc(Br)cc1F)C(=O)O [Compound A-27, (2S)-2-(4-bromo-2-fluorophenoxy)-3-methylbutanoic acid] | 20.2
O=C(O)[C@@H](Oc1ccc(Br)cc1F)C(F)F [Compound A-9, (2R)-2-(4-bromo-2-fluorophenoxy)-3,3-difluoropropanoic acid] | 15.2
CC[C@H](Oc1ccc(Br)cc1F)C(=O)O [Compound A-58, (2S)-2-(4-bromo-2-fluorophenoxy)butanoic acid] | 28.2
[2H][C@@](CF)(Oc1ccc(Br)cc1)C(=O)O [Compound A-82, (2R)-2-(4-bromophenoxy)-3-fluoro(2-^2H)propanoic acid] | 19.0
[2H]c1cc(Br)cc([2H])c1O[C@@H](C)C(=O)O [Compound A-6, (2S)-2-[4-bromo(2,6-^2H2)phenoxy]propanoic acid] | 13.0
C[C@H](Oc1ccc(Br)cc1Br)C(=O)O [Compound A-40, (2S)-2-(2,4-dibromophenoxy)propanoic acid] | 5.19
O=C(O)[C@H](CCF)Oc1ccc(Br)cc1F [Compound A-85, (2S)-2-(4-bromo-2-fluorophenoxy)-4-fluorobutanoic acid] | 12.5
C#CC[C@H](Oc1ccc(Br)cc1Cl)C(=O)O [Compound A-67, (2S)-2-(4-bromo-2-chlorophenoxy)pent-4-ynoic acid] | 37.8
C[C@@H](F)[C@H](Oc1ccc(Br)cc1F)C(=O)O [Compound A-95, (2R,3R)-2-(4-bromo-2-fluorophenoxy)-3-fluorobutanoic acid] | 10.3
C#CC[C@H](Oc1ccc(Br)cc1F)C(=O)O [Compound A-69, (2S)-2-(4-bromo-2-fluorophenoxy)pent-4-ynoic acid] | 32.6
C[C@H](Oc1ccc(Br)cc1I)C(=O)O [Compound A-8, (2S)-2-(4-bromo-2-iodophenoxy)propanoic acid] | 9.4
C#CC[C@H](Oc1ccc(Br)cc1Br)C(=O)O [Compound A-66, (2S)-2-(2,4-dibromophenoxy)pent-4-ynoic acid] | 27.4
